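Dose response: 5 concentrations. Exposure: 48 h. Format: 96-well plates. Endpoint: linear interpolation; highest concentration if not reached. TGI marks complete inhibition of growth.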
Assays:
Assay in all cases: NCI-60 cell line screen, 48 h
SNB-19 CNS = system: SNB-19 CNS
NCI-H23 lung = system: NCI-H23 lung
MCF7 breast = system: MCF7 breast
MALME-3M melanoma = system: MALME-3M melanoma
MDA-MB-231 breast = system: MDA-MB-231 breast
ACHN renal = system: ACHN renal
SW-620 colon = system: SW-620 colon
OVCAR-5 ovarian = system: OVCAR-5 ovarian
IGROV1 ovarian = system: IGROV1 ovarian
EKVX NSCLC = system: EKVX NSCLC
OVCAR-4 ovarian = system: OVCAR-4 ovarian
M14 melanoma = system: M14 melanoma
OVCAR-3 ovarian = system: OVCAR-3 ovarian
HOP-92 NSCLC = system: HOP-92 NSCLC
SF-295 CNS = system: SF-295 CNS
A498 renal = system: A498 renal
SR leukemia = system: SR leukemia
SK-MEL-5 melanoma = system: SK-MEL-5 melanoma
CAKI-1 renal = system: CAKI-1 renal
HCT-116 colon = system: HCT-116 colon
SK-MEL-2 melanoma = system: SK-MEL-2 melanoma
786-0 renal = system: 786-0 renal
MOLT-4 leukemia = system: MOLT-4 leukemia
LOX IMVI melanoma = system: LOX IMVI melanoma
CCRF-CEM leukemia = system: CCRF-CEM leukemia
SK-MEL-28 melanoma = system: SK-MEL-28 melanoma
SF-539 CNS = system: SF-539 CNS
MDA-MB-435 = system: MDA-MB-435
UACC-62 melanoma = system: UACC-62 melanoma
DU-145 prostate = system: DU-145 prostate
NCI-H522 lung = system: NCI-H522 lung
NCI/ADR-RES ovarian = system: NCI/ADR-RES ovarian
UO-31 renal = system: UO-31 renal
U251 CNS = system: U251 CNS
A549 NSCLC = system: A549 NSCLC
NCI-H226 lung = system: NCI-H226 lung
COLO 205 colon = system: COLO 205 colon
SF-268 CNS = system: SF-268 CNS
PC-3 prostate = system: PC-3 prostate
KM12 colon = system: KM12 colon
SN12C renal = system: SN12C renal
HCT-15 colon = system: HCT-15 colon
MDA-N = system: MDA-N
HL-60(TB) leukemia = system: HL-60(TB) leukemia
TK-10 renal = system: TK-10 renal
SK-OV-3 ovarian = system: SK-OV-3 ovarian
NCI-H460 lung = system: NCI-H460 lung
HT29 colon = system: HT29 colon
HOP-62 NSCLC = system: HOP-62 NSCLC
T-47D breast = system: T-47D breast
BT-549 breast = system: BT-549 breast
HS 578T breast = system: HS 578T breast
K-562 leukemia = system: K-562 leukemia
RPMI-8226 leukemia = system: RPMI-8226 leukemia
RXF 393 renal = system: RXF 393 renal
OVCAR-8 ovarian = system: OVCAR-8 ovarian
SNB-75 CNS = system: SNB-75 CNS
UACC-257 melanoma = system: UACC-257 melanoma
HCC-2998 colon = system: HCC-2998 colon

Cn1c(=S)c2[nH]c(SCCN3C(=O)c4ccccc4C3=O)nc2n(C)c1=O
TGI (SNB-19 CNS): > 100 µM
TGI (NCI-H23 lung): > 100 µM
TGI (MCF7 breast): > 100 µM
TGI (MALME-3M melanoma): > 100 µM
TGI (MDA-MB-231 breast): > 100 µM
TGI (ACHN renal): > 100 µM
TGI (SW-620 colon): > 100 µM
TGI (OVCAR-5 ovarian): > 100 µM
TGI (IGROV1 ovarian): > 100 µM
TGI (EKVX NSCLC): > 100 µM
TGI (OVCAR-4 ovarian): > 100 µM
TGI (M14 melanoma): > 100 µM
TGI (OVCAR-3 ovarian): > 100 µM
TGI (HOP-92 NSCLC): > 100 µM
TGI (SF-295 CNS): > 100 µM
TGI (A498 renal): > 100 µM
TGI (SR leukemia): > 100 µM
TGI (SK-MEL-5 melanoma): > 100 µM
TGI (CAKI-1 renal): > 100 µM
TGI (HCT-116 colon): > 100 µM
TGI (SK-MEL-2 melanoma): > 100 µM
TGI (786-0 renal): > 100 µM
TGI (MOLT-4 leukemia): > 100 µM
TGI (LOX IMVI melanoma): > 100 µM
TGI (CCRF-CEM leukemia): > 100 µM
TGI (SK-MEL-28 melanoma): > 100 µM
TGI (SF-539 CNS): > 100 µM
TGI (MDA-MB-435): > 100 µM
TGI (UACC-62 melanoma): > 100 µM
TGI (DU-145 prostate): > 100 µM
TGI (NCI-H522 lung): > 100 µM
TGI (NCI/ADR-RES ovarian): > 100 µM
TGI (UO-31 renal): > 100 µM
TGI (U251 CNS): > 100 µM
TGI (A549 NSCLC): > 100 µM
TGI (NCI-H226 lung): > 100 µM
TGI (COLO 205 colon): > 100 µM
TGI (SF-268 CNS): > 100 µM
TGI (PC-3 prostate): > 100 µM
TGI (KM12 colon): > 100 µM
TGI (SN12C renal): > 100 µM
TGI (HCT-15 colon): > 100 µM
TGI (MDA-N): > 100 µM
TGI (HL-60(TB) leukemia): > 100 µM
TGI (TK-10 renal): > 100 µM
TGI (SK-OV-3 ovarian): > 100 µM
TGI (NCI-H460 lung): > 100 µM
TGI (HT29 colon): > 100 µM
TGI (HOP-62 NSCLC): > 100 µM
TGI (T-47D breast): > 100 µM
TGI (BT-549 breast): > 100 µM
TGI (HS 578T breast): > 100 µM
TGI (K-562 leukemia): > 100 µM
TGI (RPMI-8226 leukemia): > 100 µM
TGI (RXF 393 renal): > 100 µM
TGI (OVCAR-8 ovarian): > 100 µM
TGI (SNB-75 CNS): > 100 µM
TGI (UACC-257 melanoma): > 100 µM

Cc1cccc2c(N)c3cccc(C(=O)NCC[N+]4(Cc5ccc([N+](=O)[O-])cc5)CCOCC4)c3nc12
TGI (SNB-19 CNS): > 100 µM
TGI (NCI-H23 lung): > 100 µM
TGI (MCF7 breast): > 100 µM
TGI (MALME-3M melanoma): > 100 µM
TGI (MDA-MB-231 breast): > 86.2 µM
TGI (ACHN renal): > 100 µM
TGI (SW-620 colon): > 100 µM
TGI (OVCAR-5 ovarian): > 100 µM
TGI (IGROV1 ovarian): > 100 µM
TGI (EKVX NSCLC): > 100 µM
TGI (OVCAR-4 ovarian): > 100 µM
TGI (M14 melanoma): > 100 µM
TGI (OVCAR-3 ovarian): > 100 µM
TGI (HOP-92 NSCLC): 71.8 µM
TGI (SF-295 CNS): > 100 µM
TGI (A498 renal): > 100 µM
TGI (SR leukemia): 64.2 µM
TGI (SK-MEL-5 melanoma): > 100 µM
TGI (CAKI-1 renal): > 100 µM
TGI (HCT-116 colon): 58.5 µM
TGI (SK-MEL-2 melanoma): > 100 µM
TGI (786-0 renal): > 100 µM
TGI (MOLT-4 leukemia): > 69.2 µM
TGI (LOX IMVI melanoma): > 100 µM
TGI (CCRF-CEM leukemia): > 100 µM
TGI (SK-MEL-28 melanoma): > 100 µM
TGI (SF-539 CNS): > 100 µM
TGI (MDA-MB-435): > 100 µM
TGI (UACC-62 melanoma): > 100 µM
TGI (DU-145 prostate): > 100 µM
TGI (NCI-H522 lung): > 84.9 µM
TGI (NCI/ADR-RES ovarian): > 100 µM
TGI (UO-31 renal): > 100 µM
TGI (U251 CNS): > 100 µM
TGI (A549 NSCLC): > 100 µM
TGI (NCI-H226 lung): > 100 µM
TGI (COLO 205 colon): > 100 µM
TGI (SF-268 CNS): > 100 µM
TGI (PC-3 prostate): > 100 µM
TGI (KM12 colon): > 100 µM
TGI (SN12C renal): > 100 µM
TGI (HCT-15 colon): > 100 µM
TGI (MDA-N): > 100 µM
TGI (HL-60(TB) leukemia): 58.1 µM
TGI (TK-10 renal): > 100 µM
TGI (SK-OV-3 ovarian): > 100 µM
TGI (NCI-H460 lung): > 62.5 µM
TGI (HT29 colon): > 100 µM
TGI (HOP-62 NSCLC): > 100 µM
TGI (T-47D breast): 98.3 µM
TGI (BT-549 breast): > 100 µM
TGI (HS 578T breast): > 77 µM
TGI (K-562 leukemia): > 100 µM
TGI (RPMI-8226 leukemia): > 100 µM
TGI (RXF 393 renal): > 100 µM
TGI (OVCAR-8 ovarian): > 100 µM
TGI (SNB-75 CNS): 63 µM
TGI (HCC-2998 colon): 60.5 µM
TGI (UACC-257 melanoma): > 100 µM
